Results: PMC3025922 (BMC Biology, 2010)
Like-named read-outs stand apart in the source and are kept apart here. Residues, ends and D or L forms follow the SMILES beside them. *: point of attachment. Cbz = O=C(OCc1ccccc1)*

Experiments:
[1] = system: p21 protein levels in IMR90 cells; assay: Immunoblot quantification of p21, IMR90; format: cell-based, human; details: IMR90, 24 h; SMIPs 40 μM, MG132 20 μM, bortezomib 100 nM
Protocol: (§1) Total cell lysate from cells treated with vehicle (DMSO) or compounds were obtained by incubating cells in lysis buffer (25 mM Tris-HCl pH 7.4, 150 mM NaCl, 0.5% Triton X-100, protease inhibitors) for 15 min at 4°C. The supernatant was collected by centrifugation and the amount of protein was determined with a Bio-Rad protein assay (Bio-Rad) using BSA as standard. Equal amounts of protein were subjected to SDS-PAGE (4%-20% gels, Invitrogen) and transferred to PVDF membranes. The membranes were blocked with TBST (50 mM Tris-HCl pH 7.5, 150 mM NaCl, 0.05% Tween-20) containing 5% non-fat dry milk or bovine serum albumin (BSA) for 1 h at room temperature, followed by incubation in primary antibodies 4°C overnight. Membranes were washed and incubated with secondary antibodies conjugated to HRP (Jackson ImmunoResearch Laboratories) for 1 h at room temperature. Signals were visualized using the ECL Western Blotting Substrate (Pierce Biotechnology, IL, USA) according to the manufacturer's instructions. Membranes were stripped using Restore™ Western Blot Stripping Buffer (Pierce Biotechnology). Films were scanned and quantification of the bands was performed using Image J software http://rsbweb.nih.gov/ij/.

[2] = system: p27 protein levels in IMR90 cells; assay: Immunoblot quantification of p27, IMR90; format: cell-based, human; details: IMR90, 24 h; SMIPs 40 μM, MG132 20 μM, bortezomib 100 nM
Protocol: as §1

[3] = system: p27 protein levels in DU145 cells; assay: Immunoblot quantification of p27, DU145; format: cell-based, human; details: DU145, 24 h; SMIPs 40 μM, MG132 20 μM, bortezomib 100 nM
Protocol: as §1

[4] = system: p27 protein levels in LNCaP-S14 cells; assay: Immunoblot quantification of p27, LNCaP-S14; format: cell-based, human; details: LNCaP-S14, 24 h; SMIPs 40 μM, MG132 20 μM, bortezomib 100 nM
Protocol: as §1

[5] = system: p27 protein levels in HeLa cells; assay: Immunoblot quantification of p27, HeLa; format: cell-based, human; details: HeLa, 24 h; SMIPs 40 μM, MG132 20 μM, bortezomib 100 nM
Protocol: as §1

[6] = system: p21 protein levels in PC3 cells; assay: Immunoblot quantification of p21, PC3; format: cell-based, human; details: PC3, 24 h; SMIPs 40 μM, MG132 20 μM, bortezomib 100 nM
Protocol: as §1

[7] = system: polyubiquitylated proteins in LNCaP-S14 cells; assay: Anti-ubiquitin immunoblot of total lysate; format: cell-based, human; details: LNCaP-S14, SMIPs 20 and 40 μM, MG132 20 μM, bortezomib 100 nM, 24 h
Protocol: as §1

[8] = system: p27 protein levels in LNCaP cells; assay: Immunoblot quantification of p27, LNCaP; format: cell-based, human; details: LNCaP, 24 h; SMIPs 40 μM, MG132 20 μM, bortezomib 100 nM
Protocol: as §1

[9] = system: p21 protein levels in DU145 cells; assay: Immunoblot quantification of p21, DU145; format: cell-based, human; details: DU145, 24 h; SMIPs 40 μM, MG132 20 μM, bortezomib 100 nM
Protocol: as §1

[10] = system: p21 protein levels in HeLa cells; assay: Immunoblot quantification of p21, HeLa; format: cell-based, human; details: HeLa, 24 h; SMIPs 40 μM, MG132 20 μM, bortezomib 100 nM
Protocol: as §1

[11] = system: p27 protein levels in PC3 cells; assay: Immunoblot quantification of p27, PC3; format: cell-based, human; details: PC3, 24 h; SMIPs 40 μM, MG132 20 μM, bortezomib 100 nM
Protocol: as §1

[12] = MTT cytotoxicity assay, IMR90; format: cell-based; details: human, IMR90, 0.01 - 40 μM, 72 h
Protocol: (§2) LNCaP-S14 (10,000 cells), PC3, DU145 or IMR90 cells (5000 cells) were seeded in 96-well plates and treated with increasing concentrations of the respective SMIPs for 72 h. Cell viability was assessed using the MTT cell proliferation assay (ATCC®, Middlesex, UK) according to the manufacturer's protocol. IC50 was calculated using the BioDataFit 1.02 software http://www.changbioscience.com/stat/ec50.html.

[13] = system: nuclear p27 in LNCaP-S14 cells; format: cell-based, human
LNCaP-S14 cells = assay: MTT cytotoxicity assay, LNCaP-S14; details: Homo sapiens, 72 h, read-out: IC50 (MTT cytotoxicity)
Protocol: as §2

[14] = system: p21 protein levels in LNCaP cells; assay: Immunoblot quantification of p21, LNCaP; format: cell-based, human; details: LNCaP, 24 h; SMIPs 40 μM, MG132 20 μM
Protocol: as §1

[15] = primary screening, nuclear p27 in LNCaP-S14 cells
[16] = primary screening, S = strong, M = medium, W = weak by Z score

Q: Which results are given for `CC(C)C[C@H](NC(=O)[C@H](Cc1ccccc1)NC(=O)c1cnccn1)B(O)O` [Bortezomib, reference compound]?
A: p21 protein level (immunoblot, DMSO = 1.0) [1]: 1.8 ± 0.4; p27 protein level (immunoblot, DMSO = 1.0) [2]: 1.8 ± 0.0; p27 protein level (immunoblot, DMSO = 1.0) [3]: 1.7 ± 0.5; p27 protein level (immunoblot, DMSO = 1.0) [4]: 1.8; p27 protein level (immunoblot, DMSO = 1.0) [5]: 1.3 ± 0.2; p21 protein level (immunoblot, DMSO = 1.0) [6]: 4.7 ± 1.4; accumulation of polyubiquitylated proteins [7]: readily seen; p27 protein level (immunoblot, DMSO = 1.0) [8]: 2.1; p21 protein level (immunoblot, DMSO = 1.0) [9]: 2.5 ± 0.4; p21 protein level (immunoblot, DMSO = 1.0) [10]: 2.2 ± 0.8; p27 protein level (immunoblot, DMSO = 1.0) [11]: 2.5 ± 1.0

Q: Which IC50 [12] does the source give for `C/C=C(/C)C(=O)O[C@H]1C(C)=C2[C@H]([C@@H]1OC(=O)CCCCCCC)[C@@](C)(OC(C)=O)C[C@H](OC(=O)CCC)[C@@]1(O)[C@H]2OC(=O)[C@@]1(C)O` [Thapsigargin, reference compound] here?
A: 31 nM

Q: And the “hit in primary screen (increased percentage of p27 positive cells)” value ([13]; LNCaP-S14, ~5 to 35 μM, 18 h)?
A: identified

Q: What about the IC50 (LNCaP-S14 cells) of the same molecule?
A: 7.8 nM

Q: With `CC(C)C[C@@H](C=O)NC(=O)[C@H](CC(C)C)NC(=O)[C@H](CC(C)C)NC(=O)OCc1ccccc1` [MG132, reference compound] (Cbz-Leu-Leu-Leu-aldehyde) as the molecule, how does the IC50 [12] read?
A: 445 nM

Q: What about the “p27 protein level (immunoblot, DMSO = 1.0)” value (from here on “p27 protein level”) [2] of the same molecule?
A: 0.9 ± 0.5

Q: And the “p27 protein level” value [3]?
A: 2.4 ± 0.1

Q: And the “p27 protein level” value [4]?
A: 1.5

Q: What about the “p27 protein level” value [5] of the same molecule?
A: 2.2 ± 0.9

Q: And the “p21 protein level (immunoblot, DMSO = 1.0)” value (“p21 protein level” for short) [6]?
A: 4.1 ± 0.4

Q: What about the “p21 protein level” value [14] of the same molecule?
A: 2.9

Q: What about the IC50 (LNCaP-S14 cells) of the same molecule?
A: 379 nM

Q: What about the “accumulation of polyubiquitylated proteins” value [7] of the same molecule?
A: readily seen

Q: And the “p27 protein level” value [8]?
A: 1.9 ± 0.1

Q: And the “p21 protein level” value [9]?
A: 3.1

Q: And the “p21 protein level” value [10]?
A: 5.9 ± 1.7

Q: And the “p27 protein level” value [11]?
A: 2.0 ± 1.0

Q: What does the source list for `COc1ccccc1C(=O)N1c2ccccc2Sc2ccccc21` [1160M09]?
A: Z score (aver) [13, 15]: 2.71; Clasf [13, 16]: W (weak (Z score 2-3)

Q: For `C1CCC(C(CC2CCCCN2)C2CCCCC2)CC1.O=C(O)C=CC(=O)O` (stereo not drawn) [1568J14], which “Z score (aver)” value [13, 15] is on record?
A: 7.22

Q: And the Clasf [13, 16]?
A: S (strong (Z score > 5))

Q: Which “Z score (aver)” value [13, 15] does the source give for `N#CC1=C(N)C(C#N)(C#N)C(c2ccc(Br)cc2)C2CN(Cc3ccccc3)CC=C12` (stereo not drawn) [1160K18] here?
A: 2.90

Q: And the Clasf [13, 16]?
A: W (weak (Z score 2-3)

Q: Which “Z score (aver)” value [13, 15] does the source give for `Cl.Fc1ccc(C(OCCN2CCN(CCCc3ccccc3)CC2)c2ccc(F)cc2)cc1` [1569M13] here?
A: 5.81

Q: And the Clasf [13, 16]?
A: S (strong (Z score > 5))

Q: With `CC1OC(OC2CCC3(C=O)C4CCC5(C)C(C6=CC(=O)OC6)CCC5(O)C4CCC3(O)C2)CC(O)C1O` (stereo not drawn) [1570A13] as the molecule, how does the “Z score (aver)” value [13, 15] read?
A: 2.74

Q: What about the Clasf [13, 16] of the same molecule?
A: W (weak (Z score 2-3)

Q: With `CSc1ccc2c(c1)N(CCC1CCCCN1C)c1ccccc1S2.Cl` (stereo not drawn) [1568O17] as the molecule, how does the Clasf [13] read?
A: W (key: S: strong (Z score > 5); M: medium (Z score 3-5); W: weak (Z score 2-3)

Q: What about the “Z score (aver)” value [13] of the same molecule?
A: 2.51

Q: For `COc1ccc(CC(N)C(=O)NC2C(CO)OC(n3cnc4c(N(C)C)ncnc43)C2O)cc1.Cl` (stereo not drawn) [1569O22], which “Z score (aver)” value [13, 15] is on record?
A: 7.86

Q: And the Clasf [13, 16]?
A: S (strong (Z score > 5))

Q: With `COc1ccccc1NC(=O)N(Cc1cccc(Cl)c1)c1ccc2[nH]c(C(C)(C)C)cc2c1` [522L04] as the molecule, how does the “Z score (aver)” value [13, 15] read?
A: 4.02

Q: And the Clasf [13, 16]?
A: M (medium (Z score 3-5))

Q: For `CCCCC(CC)CNC(=N)NC(=N)NCCCCCCNC(=N)NC(=N)NCC(CC)CCCC.Cl` (stereo not drawn) [502E04], which “Z score (aver)” value [13, 15] is on record?
A: 9.20

Q: What about the Clasf [13, 16] of the same molecule?
A: S (strong (Z score > 5))

Q: Which results are given for `C=CCN1C(=O)CC(C(=O)Nc2ccc(OC)cc2)SC1=Nc1ccc(Cl)cc1` (stereo not drawn) [1158M12]?
A: Z score (aver) [13, 15]: 2.69; Clasf [13, 16]: W (weak (Z score 2-3)

Q: What does the source list for `CS(=O)(=O)c1ccc(C=CC(=O)Nc2cccc(C(F)(F)F)c2)cc1` [518N13]?
A: Z score (aver) [13, 15]: 5.55; Clasf [13, 16]: S (strong (Z score > 5))

Q: With `C=CCNC1=C2CC(C)CC(OC)C(O)C(C)C=C(C)C(OC(N)=O)C(OC)C=CC=C(C)C(=O)NC(=CC1=O)C2=O` (stereo not drawn) [1361H16] as the molecule, how does the “Z score (aver)” value [13, 15] read?
A: 3.92

Q: And the Clasf [13, 16]?
A: M (medium (Z score 3-5))
